Source: ChEMBL document CHEMBL1130039, “1,2-Diarylimidazoles as potent, cyclooxygenase-2 selective, and orally active antiinflammatory agents” (J Med Chem, 1997)
The source made the active and inactive calls. The rule behind the calls is not given here.

Columns and labels:
[1] = target: T1, Prostaglandin G/H synthase 1 (Homo sapiens, UniProt P23219)
Rattus norvegicus [2] = species: Rattus norvegicus; assay: animal or person; type: functional
Rattus norvegicus [3] = species: Rattus norvegicus; assay: animal or person; type: functional; remark: listed apart in the source
Rattus norvegicus [4] = species: Rattus norvegicus; assay: animal or person; type: functional; remark: listed apart in the source
Rattus norvegicus [5] = species: Rattus norvegicus; assay: animal or person; type: functional; remark: listed apart in the source
[6] = rat, in vivo, po, 200 mg/kg
[7] = mouse, in vivo, po, 200 mg/kg
[8] = mouse, in vivo, po, 20 mg/kg
Rattus norvegicus [9] = species: Rattus norvegicus; assay: animal or person; conditions: read-out: Inhibition
Rattus norvegicus [10] = species: Rattus norvegicus; assay: animal or person; type: functional; remark: listed apart in the source
[11] = target: T2, Prostaglandin G/H synthase 2 (Homo sapiens) (UniProt P35354)
T2 sequence (whole entry): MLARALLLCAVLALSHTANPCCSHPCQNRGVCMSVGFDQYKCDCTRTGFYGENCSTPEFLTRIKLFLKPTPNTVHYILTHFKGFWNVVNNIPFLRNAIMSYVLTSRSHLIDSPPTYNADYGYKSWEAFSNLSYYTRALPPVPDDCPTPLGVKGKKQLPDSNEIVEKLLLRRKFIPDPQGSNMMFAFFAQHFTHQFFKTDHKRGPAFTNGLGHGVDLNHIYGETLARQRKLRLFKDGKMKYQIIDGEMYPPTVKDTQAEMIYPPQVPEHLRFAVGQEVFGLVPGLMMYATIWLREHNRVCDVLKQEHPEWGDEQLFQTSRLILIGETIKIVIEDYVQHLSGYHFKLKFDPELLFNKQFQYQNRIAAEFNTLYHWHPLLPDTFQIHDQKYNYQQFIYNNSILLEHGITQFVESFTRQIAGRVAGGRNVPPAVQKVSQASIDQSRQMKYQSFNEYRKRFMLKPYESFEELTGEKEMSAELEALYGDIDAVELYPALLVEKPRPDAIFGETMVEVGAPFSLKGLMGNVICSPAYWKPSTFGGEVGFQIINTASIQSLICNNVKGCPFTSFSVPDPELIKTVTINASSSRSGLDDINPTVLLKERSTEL

[12] = target: T1, Prostaglandin G/H synthase 1; remark: listed apart in the source
Rattus norvegicus [13] = species: Rattus norvegicus; assay: animal or person; type: functional; remark: listed apart in the source
Rattus norvegicus [14] = species: Rattus norvegicus; assay: animal or person; type: functional; remark: listed apart in the source
physchem = conditions: octanol/water
Rattus norvegicus [15] = species: Rattus norvegicus; assay: animal or person; type: functional; remark: listed apart in the source

T1 sequence (P23219 whole entry): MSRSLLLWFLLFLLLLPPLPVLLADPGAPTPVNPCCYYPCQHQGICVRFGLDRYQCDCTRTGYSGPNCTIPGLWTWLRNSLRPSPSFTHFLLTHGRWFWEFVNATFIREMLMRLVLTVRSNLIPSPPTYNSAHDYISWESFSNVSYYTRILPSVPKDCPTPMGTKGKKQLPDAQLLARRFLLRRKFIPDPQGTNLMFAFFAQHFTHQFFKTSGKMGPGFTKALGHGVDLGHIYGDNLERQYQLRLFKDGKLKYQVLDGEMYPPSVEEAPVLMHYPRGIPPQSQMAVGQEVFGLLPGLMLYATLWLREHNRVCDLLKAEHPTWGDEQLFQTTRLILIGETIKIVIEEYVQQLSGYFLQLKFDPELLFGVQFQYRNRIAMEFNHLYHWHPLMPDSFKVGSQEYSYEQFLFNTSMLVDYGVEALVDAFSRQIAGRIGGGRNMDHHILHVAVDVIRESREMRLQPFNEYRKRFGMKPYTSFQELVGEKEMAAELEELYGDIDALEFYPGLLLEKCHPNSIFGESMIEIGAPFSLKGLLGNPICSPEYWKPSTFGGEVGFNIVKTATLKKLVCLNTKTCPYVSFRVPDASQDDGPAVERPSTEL

| Compound | IC50 [1] | inhibition in vivo at 2 mg/kg (Rattus norvegicus [2]) | further results |
| --- | --- | --- | --- |
| Cc1ccc(F)cc1-c1nc(C(F)(F)F)cn1-c1ccc(S(C)(=O)=O)cc1 | > 100 µM |  |  |
| CSCc1cn(-c2ccc(S(C)(=O)=O)cc2)c(-c2ccc(Cl)cc2)n1 | > 100 µM | 10% |  |
| COc1ccc2c(c1)c(CC(=O)O)c(C)n2C(=O)c1ccc(Cl)cc1 [INDOMETHACIN] |  |  | ED50 (Rattus norvegicus [3]): 60 mg/kg |
| Cc1cccc(Cl)c1-c1nc(C(F)(F)F)cn1-c1ccc(S(C)(=O)=O)cc1 | > 100 µM |  |  |
| CS(=O)(=O)c1ccc(-n2cc(C(F)(F)F)nc2-c2cccc(C(F)(F)F)c2)cc1 |  | 42% |  |
| CS(=O)(=O)c1ccc(-n2cc(C(F)(F)F)nc2-c2ccc(F)c(F)c2)cc1 |  | 87% |  |
| Cc1cccc(-c2nc(C(F)(F)F)cn2-c2ccc(S(N)(=O)=O)cc2)c1 |  | 95% |  |
| CS(=O)(=O)c1ccc(-n2cc(CF)nc2-c2ccc(Cl)cc2)cc1 | > 100 µM | 36% |  |
| NS(=O)(=O)c1ccc(-n2cc(C(F)(F)F)nc2-c2ccc(F)c(F)c2)cc1 |  | 83% |  |
| Cc1cc(-c2nc(C(F)(F)F)cn2-c2ccc(S(C)(=O)=O)cc2)ccc1Cl |  | 64% |  |
| COc1ccc(-c2nc(C(F)(F)F)cn2-c2ccc(S(N)(=O)=O)cc2)cc1F |  | 89% | ED50 (Rattus norvegicus [4]): 36 mg/kg; ED50 (Rattus norvegicus [3]): 19 mg/kg |
| CS(=O)(=O)c1ccc(-n2cc(C(F)(F)F)nc2-c2cccc(F)c2)cc1 |  | 88% |  |
| CN(C)c1c(Cl)cc(-c2nc(C(F)(F)F)cn2-c2ccc(S(C)(=O)=O)cc2)cc1Cl | > 100 µM | 25% |  |
| Cc1ccccc1-c1nc(C(F)(F)F)cn1-c1ccc(S(C)(=O)=O)cc1 |  | 95% | ED50 (Rattus norvegicus [4]): 43 mg/kg; ED50 (Rattus norvegicus [5]): 17.8 mg/kg; Toxicity [6]: 0 |
| CS(=O)(=O)c1ccc(-n2cc(-c3ccccc3)nc2-c2ccc(Cl)cc2)cc1 | > 100 µM | 6% |  |
| Cc1cn(-c2ccc(F)cc2)c(-c2ccc(S(C)(=O)=O)cc2)n1 | > 100 µM |  |  |
| NS(=O)(=O)c1ccc(-n2cc(C(F)(F)F)nc2-c2ccc(F)cc2)cc1 | 1.9 µM | 98% |  |
| CS(=O)(=O)c1ccc(-n2cc(C(F)(F)F)nc2-c2cc(F)cc(C(F)(F)F)c2)cc1 | 67 µM |  |  |
| COc1cc(-c2nc(C(F)(F)F)cn2-c2ccc(S(N)(=O)=O)cc2)ccc1Cl |  | 100% |  |

| Compound | IC50 [1] | inhibition in vivo at 2 mg/kg (Rattus norvegicus [2]) | further results |
| --- | --- | --- | --- |
| CS(=O)(=O)c1ccc(-n2cc(C#N)nc2-c2ccc(Cl)cc2)cc1 |  | 69% |  |
| Cc1cccc(-c2nc(C(F)(F)F)cn2-c2ccc(S(C)(=O)=O)cc2)c1 |  | 77% | ED50 (Rattus norvegicus [4]): 46 mg/kg; ED50 (Rattus norvegicus [5]): 23 mg/kg; Toxicity [7]: 0; Toxicity [8]: 0 |
| Cc1cc(F)cc(-c2nc(C(F)(F)F)cn2-c2ccc(S(N)(=O)=O)cc2)c1 |  | 80% |  |
| Cc1cn(-c2ccc(S(C)(=O)=O)cc2)c(-c2ccc(Cl)cc2)n1 | > 100 µM |  | inhibition in vivo at 2 mg/kg (Rattus norvegicus [9]): 53% |
| CS(=O)(=O)c1ccc(-n2ccnc2-c2ccccc2)cc1 | > 100 µM |  |  |
| CS(=O)(=O)c1ccc(-n2cc(C(F)(F)F)nc2-c2ccccc2F)cc1 |  | 97% |  |
| CS(=O)(=O)c1ccc(-n2cc(C(F)(F)F)nc2-c2cc(Cl)cc(Cl)c2)cc1 |  | 5% |  |
| Cc1ccc(-c2nc(C(F)(F)F)cn2-c2ccc(S(C)(=O)=O)cc2)cc1Cl |  | 10% | ED50 (Rattus norvegicus [4]): 55 mg/kg; ED50 (Rattus norvegicus [10]): 20.9 mg/kg |
| COCc1cccc(-c2nc(C(F)(F)F)cn2-c2ccc(S(C)(=O)=O)cc2)c1 | > 100 µM |  |  |
| COc1c(Cl)cc(-c2nc(C(F)(F)F)cn2-c2ccc(S(C)(=O)=O)cc2)cc1Cl | > 100 µM | 25% |  |
| CN(C)c1ccc(-c2nc(C(F)(F)F)cn2-c2ccc(S(C)(=O)=O)cc2)cc1Cl |  | 87% |  |
| COc1cccc(-c2nc(C(F)(F)F)cn2-c2ccc(S(C)(=O)=O)cc2)c1 |  | 45% |  |
| Cc1cc(F)cc(-c2nc(C(F)(F)F)cn2-c2ccc(S(C)(=O)=O)cc2)c1 |  | 87% |  |
| CS(=O)(=O)c1ccc(-n2cc(C(F)(F)F)nc2-c2ccc3c(c2)OCO3)cc1 |  | 78% |  |
| CS(=O)(=O)c1ccc(-c2[nH]cnc2-c2ccc(F)cc2)cc1 |  |  | NA [11]: inactive; NA [12]: inactive |
| COc1cc(-c2nc(C(F)(F)F)cn2-c2ccc(S(C)(=O)=O)cc2)ccc1Cl |  | 0% |  |
| CSc1ccc(-c2nc(C(F)(F)F)cn2-c2ccc(S(C)(=O)=O)cc2)cc1Cl |  | 0% |  |
| CN(C)c1cc(-c2nc(C(F)(F)F)cn2-c2ccc(S(C)(=O)=O)cc2)ccc1Cl | > 100 µM | 69% |  |
| COc1c(F)cc(-c2nc(C(F)(F)F)cn2-c2ccc(S(N)(=O)=O)cc2)cc1F |  | 100% |  |

| Compound | IC50 [1] | inhibition in vivo at 2 mg/kg (Rattus norvegicus [2]) | further results |
| --- | --- | --- | --- |
| CS(=O)(=O)c1ccc(-n2cc(COc3ccc(Cl)cc3)nc2-c2ccc(Cl)cc2)cc1 | > 100 µM | 15% |  |
| COc1ccc(-c2nc(C(F)(F)F)cn2-c2ccc(S(C)(=O)=O)cc2)cc1Cl |  | 92% | ED50 (Rattus norvegicus [13]): 29 mg/kg; ED50 (Rattus norvegicus [14]): 35 mg/kg |
| CS(=O)(=O)c1ccc(-n2cc(CN)nc2-c2ccc(Cl)cc2)cc1 | > 100 µM |  |  |
| Cc1ccc(-c2nc(C(F)(F)F)cn2-c2ccc(S(C)(=O)=O)cc2)cc1C |  | 15% |  |
| NS(=O)(=O)c1ccc(-n2cc(C(F)(F)F)nc2-c2cccc(Br)c2)cc1 | 4.5 µM |  |  |
| CS(=O)(=O)c1ccc(-n2cc(C(F)(F)F)nc2-c2ccc(Cl)cc2)cc1 |  | 98% | ED50 (Rattus norvegicus [5]): 9 mg/kg; logP (physchem): 3.3 |
| Cc1cc(Cl)cc(-c2nc(C(F)(F)F)cn2-c2ccc(S(N)(=O)=O)cc2)c1 | > 100 µM | 61% |  |
| COc1c(F)cc(-c2nc(C(F)(F)F)cn2-c2ccc(S(C)(=O)=O)cc2)cc1F |  | 89% | ED50 (Rattus norvegicus [15]): 26 mg/kg |
| CS(=O)(=O)c1ccc(-n2cc(CSc3ccc(Cl)cc3)nc2-c2ccc(Cl)cc2)cc1 | > 100 µM | 0% |  |
| Cc1ccc(-c2nc(C(F)(F)F)cn2-c2ccc(S(N)(=O)=O)cc2)cc1 |  | 63% |  |
| CS(=O)(=O)c1ccc(-n2cc(C(F)(F)F)nc2-c2cccc(Br)c2)cc1 |  | 84% |  |
| COc1c(C)cc(-c2nc(C(F)(F)F)cn2-c2ccc(S(C)(=O)=O)cc2)cc1C | 91 µM | 29% |  |
| Cc1ccc(-c2nc(C(F)(F)F)cn2-c2ccc(S(C)(=O)=O)cc2)cc1F |  | 47% |  |
| Cc1cc(-c2nc(C(F)(F)F)cn2-c2ccc(S(C)(=O)=O)cc2)ccc1F |  | 90% |  |
| CSc1ccc(-c2nc(C(F)(F)F)cn2-c2ccc(S(C)(=O)=O)cc2)cc1 |  | 79% |  |
| CS(=O)(=O)c1ccc(-n2cc(C(F)(F)F)nc2-c2ccccc2)cc1 |  | 98% | ED50 (Rattus norvegicus [4]): 56 mg/kg; ED50 (Rattus norvegicus [5]): 20.8 mg/kg |
| COc1c(Br)cc(-c2nc(C(F)(F)F)cn2-c2ccc(S(C)(=O)=O)cc2)cc1Br | > 100 µM | 0% |  |
| CS(=O)(=O)Cc1cn(-c2ccc(S(C)(=O)=O)cc2)c(-c2ccc(Cl)cc2)n1 | > 100 µM |  |  |
